From PubChem BioAssay AID588645 (Sanford-Burnham Center for Chemical Genomics, 2011)
Calls of active or inactive are those of the source. How the calls were made is not given here.

Target: Intestinal-type alkaline phosphatase (Homo sapiens) (UniProt P09923)
Test: inhibition of human intestinal alkaline phosphatase – biochemical, set 2, mouse IAP inhibitor project, SAR follow-up (AID 588645)
Settings: human intestinal alkaline phosphatase enzymatic inhibition assay

Chain of Intestinal-type alkaline phosphatase (Homo sapiens) (P09923 whole entry, looked up): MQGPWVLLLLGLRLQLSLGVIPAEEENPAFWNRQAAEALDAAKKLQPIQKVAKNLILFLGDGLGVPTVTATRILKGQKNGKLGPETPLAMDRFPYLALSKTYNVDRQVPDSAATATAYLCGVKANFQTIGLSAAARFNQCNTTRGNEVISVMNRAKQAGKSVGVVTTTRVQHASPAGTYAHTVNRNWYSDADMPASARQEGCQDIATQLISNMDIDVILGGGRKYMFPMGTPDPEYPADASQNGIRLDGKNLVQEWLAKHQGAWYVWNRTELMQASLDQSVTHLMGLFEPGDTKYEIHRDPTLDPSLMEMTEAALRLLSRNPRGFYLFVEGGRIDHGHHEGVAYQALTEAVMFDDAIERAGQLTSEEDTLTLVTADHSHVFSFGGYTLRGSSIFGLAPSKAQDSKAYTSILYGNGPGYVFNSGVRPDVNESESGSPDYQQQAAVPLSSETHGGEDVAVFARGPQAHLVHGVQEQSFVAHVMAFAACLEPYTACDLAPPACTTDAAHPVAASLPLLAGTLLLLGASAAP

O=C(CCNS(=O)(=O)c1ccc2[nH]c(=O)oc2c1)NCc1cccc(F)c1
IC50: > 100 µM (inactive)

Cc1ccc(NC(=O)CCNS(=O)(=O)c2ccc3c(c2)oc(=O)n3C)c(C)c1
IC50: > 100 µM (inactive)

COc1ccc(CNC(=O)CCNS(=O)(=O)c2ccc3[nH]c(=O)oc3c2)c(OC)c1
IC50: > 100 µM (inactive)

COc1ccccc1CNC(=O)CCNS(=O)(=O)c1ccc2[nH]c(=O)oc2c1
IC50: > 100 µM (inactive)

N#Cc1ccc(NS(=O)(=O)c2ccc3[nH]c(=O)oc3c2)cc1
IC50: > 100 µM (inactive)

O=C(N/N=C/c1ccc(F)c(Br)c1)c1cc(O)c(O)c(O)c1
IC50: > 100 µM (inactive)

COc1cccc(C(=O)N/N=C/c2ccccc2F)c1
IC50: > 100 µM (inactive)

O=C(N/N=C/c1c(F)cccc1Cl)c1ccc(O)cc1
IC50: > 100 µM (inactive)

Cc1ccc(CNC(=O)C2CCCN(S(=O)(=O)c3ccc4[nH]c(=O)oc4c3)C2)cc1 (stereo unspecified)
IC50: > 100 µM (inactive)

COc1ccc(NC(=O)CCCNS(=O)(=O)c2ccc3[nH]c(=O)oc3c2)cc1OC
IC50: > 100 µM (inactive)

CCc1ccc(NC(=O)CCNS(=O)(=O)c2ccc3c(c2)oc(=O)n3C)cc1
IC50: > 100 µM (inactive)

Cc1ccc(C)c(NC(=O)CCNS(=O)(=O)c2ccc3[nH]c(=O)oc3c2)c1
IC50: > 100 µM (inactive)

COc1ccc(CNS(=O)(=O)c2ccc3[nH]c(=O)oc3c2)c(OC)c1
IC50: > 100 µM (inactive)

O=C(N/N=C/c1ccc(Br)cc1F)c1cc(O)ccc1O
IC50: > 100 µM (inactive)

O=C(NCc1ccccc1)C1CCCN(S(=O)(=O)c2ccc3[nH]c(=O)oc3c2)C1 (stereo unspecified)
IC50: > 100 µM (inactive)

COc1ccc(C(=O)N/N=C/c2ccccc2F)cc1
IC50: > 100 µM (inactive)

COc1ccc(NC(=O)CCNS(=O)(=O)c2ccc3[nH]c(=O)oc3c2)cc1OC
IC50: > 100 µM (inactive)

CSc1cccc(NC(=O)CCNS(=O)(=O)c2ccc3c(c2)oc(=O)n3C)c1
IC50: > 100 µM (inactive)

O=c1[nH]c2ccc(S(=O)(=O)NCCc3ccc4c(c3)OCO4)cc2o1
IC50: > 100 µM (inactive)

COc1cccc(CNC(=O)CNS(=O)(=O)c2ccc3[nH]c(=O)oc3c2)c1
IC50: > 100 µM (inactive)

CC(C)Oc1ccc(CNC(=O)C2CCCN(S(=O)(=O)c3ccc4[nH]c(=O)oc4c3)C2)cc1 (stereo unspecified)
IC50: > 100 µM (inactive)

O=C(NCc1ccc2c(c1)OCO2)C1CCCN(S(=O)(=O)c2ccc3[nH]c(=O)oc3c2)C1 (stereo unspecified)
IC50: > 100 µM (inactive)

COc1ccc(/C=N/NC(=O)c2cc(O)c(O)c(O)c2)cc1OC
IC50: > 100 µM (inactive)

O=C(N/N=C/c1ccccc1F)c1ccc(O)cc1
IC50: > 100 µM (inactive)

Cc1ccc(CNC(=O)CCNS(=O)(=O)c2ccc3[nH]c(=O)oc3c2)cc1
IC50: > 100 µM (inactive)

O=C(CCNS(=O)(=O)c1ccc2[nH]c(=O)oc2c1)NCc1ccccc1
IC50: > 100 µM (inactive)

O=C(N/N=C/c1ccc(F)cc1F)c1ccc(O)cc1
IC50: > 100 µM (inactive)

CC(=NNC(=O)c1ccccc1OCCOc1ccccc1)c1ccccc1F
IC50: > 100 µM (inactive)

O=C(CCNS(=O)(=O)c1ccc2[nH]c(=O)oc2c1)NCc1ccccc1F
IC50: > 100 µM (inactive)

Cc1ccc(NC(=O)CCNS(=O)(=O)c2ccc3[nH]c(=O)oc3c2)cc1C
IC50: > 100 µM (inactive)

O=C(CCNS(=O)(=O)c1ccc2[nH]c(=O)oc2c1)NCc1ccc(F)cc1
IC50: > 100 µM (inactive)

COc1ccc(CNC(=O)CNS(=O)(=O)c2ccc3[nH]c(=O)oc3c2)cc1
IC50: > 100 µM (inactive)

O=C(CCS(=O)(=O)Nc1ccc2[nH]c(=O)oc2c1)NCc1cccc(Cl)c1
IC50: > 100 µM (inactive)

CSc1cccc(NC(=O)C2CCCN(S(=O)(=O)c3ccc4c(c3)oc(=O)n4C)C2)c1 (stereo unspecified)
IC50: > 100 µM (inactive)

N#Cc1cccc(NC(=O)CNS(=O)(=O)c2ccc3[nH]c(=O)oc3c2)c1
IC50: > 100 µM (inactive)

Cc1ccc(C)c(NC(=O)C2CCCN(S(=O)(=O)c3ccc4c(c3)oc(=O)n4C)C2)c1 (stereo unspecified)
IC50: > 100 µM (inactive)

CC(C)c1ccc(NC(=O)C2CCCN(S(=O)(=O)c3ccc4c(c3)oc(=O)n4C)C2)cc1 (stereo unspecified)
IC50: > 100 µM (inactive)

O=C(N/N=C/c1ccccc1Cl)c1cc(O)c(O)c(O)c1
IC50: > 100 µM (inactive)

O=C(CCNS(=O)(=O)c1ccc2[nH]c(=O)oc2c1)NCc1ccc(Cl)cc1
IC50: > 100 µM (inactive)

O=C(CCCNS(=O)(=O)c1ccc2[nH]c(=O)oc2c1)NCCc1ccc(O)cc1
IC50: > 100 µM (inactive)

COc1ccc(CNC(=O)C2CCCN(S(=O)(=O)c3ccc4[nH]c(=O)oc4c3)C2)cc1 (stereo unspecified)
IC50: > 100 µM (inactive)

O=C(CCS(=O)(=O)Nc1ccc2[nH]c(=O)oc2c1)NCc1ccccc1Cl
IC50: > 100 µM (inactive)

O=C(CCNS(=O)(=O)c1ccc2[nH]c(=O)oc2c1)NCc1cccc(Cl)c1
IC50: > 100 µM (inactive)

O=C(N/N=C/c1ccccc1F)c1ccccc1OCc1ccccc1
IC50: > 100 µM (inactive)

COc1ccc(NS(=O)(=O)c2ccc3[nH]c(=O)oc3c2)cc1OC
IC50: > 100 µM (inactive)

O=C(N/N=C/c1c(F)cccc1Cl)c1ccc(O)cc1O
IC50: > 100 µM (inactive)

COc1ccc(/C=N\NC(=O)c2cc(O)c(O)c(O)c2)cc1CN1CCN(c2ccc(F)cc2)CC1
IC50: > 100 µM (inactive)

O=C(N/N=C/c1c(F)cccc1F)c1ccc(O)cc1
IC50: > 100 µM (inactive)

Cc1ccc(C)c(CNC(=O)C2CCCN(S(=O)(=O)c3ccc4[nH]c(=O)oc4c3)C2)c1 (stereo unspecified)
IC50: > 100 µM (inactive)

CC(C)c1ccc(NC(=O)CCNS(=O)(=O)c2ccc3c(c2)oc(=O)n3C)cc1
IC50: > 100 µM (inactive)

Cc1ccccc1CNC(=O)CCCNS(=O)(=O)c1ccc2[nH]c(=O)oc2c1
IC50: > 100 µM (inactive)

O=C(CCNS(=O)(=O)c1ccc2[nH]c(=O)oc2c1)NCc1ccc2c(c1)OCO2
IC50: > 100 µM (inactive)

COc1cc(C(=O)N/N=C/c2c(F)cccc2Cl)cc(OC)c1OC
IC50: > 100 µM (inactive)

Cc1ccc(C)c(NC(=O)CCNS(=O)(=O)c2ccc3ccccc3c2)c1
IC50: > 100 µM (inactive)

Cc1ccc(C)c(NS(=O)(=O)c2ccc3[nH]c(=O)oc3c2)c1
IC50: > 100 µM (inactive)

COc1ccc(NC(=O)CCNS(=O)(=O)c2ccc3c(c2)CCC3)cc1OC
IC50: > 100 µM (inactive)

Cc1cc(NC(=O)CCNS(=O)(=O)c2ccc3[nH]c(=O)oc3c2)ccc1Br
IC50: > 100 µM (inactive)

O=C(N/N=C/c1c(Cl)cccc1Cl)c1cc(O)c(O)c(O)c1
IC50: > 100 µM (inactive)

Cc1ccc(C)c(NC(=O)CCNS(=O)(=O)c2ccc3c(c2)CCC3)c1
IC50: > 100 µM (inactive)

O=C(CCNS(=O)(=O)c1ccc2[nH]c(=O)oc2c1)Nc1ccc2c(c1)OCO2
IC50: > 100 µM (inactive)

COc1ccc(CCNC(=O)CCCNS(=O)(=O)c2ccc3[nH]c(=O)oc3c2)cc1
IC50: > 100 µM (inactive)

O=C(CCCNS(=O)(=O)c1ccc2[nH]c(=O)oc2c1)NCc1cccc(F)c1
IC50: > 100 µM (inactive)

CCc1ccc(NC(=O)C2CCCN(S(=O)(=O)c3ccc4c(c3)oc(=O)n4C)C2)cc1 (stereo unspecified)
IC50: > 100 µM (inactive)

CC(C)c1ccc(/C=N/NC(=O)c2cc(O)c(O)c(O)c2)cc1
IC50: 10.9 µM

O=c1[nH]c2ccc(S(=O)(=O)NCc3ccc4c(c3)OCO4)cc2o1
IC50: > 100 µM (inactive)

N#Cc1cccc(NS(=O)(=O)c2ccc3[nH]c(=O)oc3c2)c1
IC50: > 100 µM (inactive)

COc1ccc(OC)c(NC(=O)CCNS(=O)(=O)c2ccc3c(c2)oc(=O)n3C)c1
IC50: > 100 µM (inactive)

O=C(CCNS(=O)(=O)c1ccc2[nH]c(=O)oc2c1)NCCc1ccc(O)cc1
IC50: > 100 µM (inactive)

O=C(CCCNS(=O)(=O)c1ccc2[nH]c(=O)oc2c1)NCc1ccc2c(c1)OCO2
IC50: > 100 µM (inactive)

COc1cccc(CNC(=O)CCNS(=O)(=O)c2ccc3[nH]c(=O)oc3c2)c1
IC50: > 100 µM (inactive)

Cc1ccc(NC(=O)CCNS(=O)(=O)c2ccc3c(c2)oc(=O)n3C)cc1
IC50: > 100 µM (inactive)

COc1ccc(CNC(=O)CNS(=O)(=O)c2ccc3[nH]c(=O)oc3c2)c(OC)c1
IC50: > 100 µM (inactive)

COc1ccc(CCNC(=O)CCCNS(=O)(=O)c2ccc3[nH]c(=O)oc3c2)cc1OC
IC50: > 100 µM (inactive)

COc1ccc(CNC(=O)CCCNS(=O)(=O)c2ccc3[nH]c(=O)oc3c2)c(OC)c1
IC50: > 100 µM (inactive)

N#Cc1cccc(CNC(=O)CCNS(=O)(=O)c2ccc3[nH]c(=O)oc3c2)c1
IC50: > 100 µM (inactive)

CC(C)(C)c1ccc(/C=N/NC(=O)c2cc(O)c(O)c(O)c2)cc1
IC50: > 100 µM (inactive)

O=C(CCNS(=O)(=O)c1ccc2[nH]c(=O)oc2c1)NCCc1ccc2c(c1)OCO2
IC50: > 100 µM (inactive)

O=C(CCNS(=O)(=O)c1ccc2c(c1)CCC2)NCCc1ccc2c(c1)OCO2
IC50: > 100 µM (inactive)

N#Cc1ccc(NC(=O)CNS(=O)(=O)c2ccc3[nH]c(=O)oc3c2)cc1
IC50: > 100 µM (inactive)

O=C(N/N=C/c1ccccc1F)c1ccc(O)cc1O
IC50: > 100 µM (inactive)

Cc1ccccc1CNC(=O)C1CCCN(S(=O)(=O)c2ccc3[nH]c(=O)oc3c2)C1 (stereo unspecified)
IC50: > 100 µM (inactive)

COc1ccc(CNC(=O)CCNS(=O)(=O)c2ccc3[nH]c(=O)oc3c2)cc1
IC50: > 100 µM (inactive)

COc1cccc(/C=N/NC(=O)c2cc(O)c(O)c(O)c2)c1O
IC50: > 100 µM (inactive)

CCOc1cc(C(=O)N/N=C/c2ccccc2F)cc(OCC)c1OCC
IC50: > 100 µM (inactive)

O=C(N/N=C/c1cccc(Cl)c1Cl)c1cc(O)c(O)c(O)c1
IC50: 64.3 µM

C/C(=N\NC(=O)c1cc(O)c(O)c(O)c1)c1ccc(O)cc1O
IC50: > 100 µM (inactive)

O=C(CCNS(=O)(=O)c1ccc2[nH]c(=O)oc2c1)NCc1ccccc1Cl
IC50: > 100 µM (inactive)

COc1ccc(CNS(=O)(=O)c2ccc3[nH]c(=O)oc3c2)cc1
IC50: > 100 µM (inactive)

O=C(N/N=C/c1ccc(Cl)c(Cl)c1)c1cc(O)c(O)c(O)c1
IC50: > 100 µM (inactive)

O=C(CCS(=O)(=O)Nc1ccc2[nH]c(=O)oc2c1)NCc1cccc(F)c1
IC50: > 100 µM (inactive)

COc1cccc(NC(=O)CCNS(=O)(=O)c2ccc3c(c2)oc(=O)n3C)c1
IC50: > 100 µM (inactive)
